# Measurements taken from publication PMC12102759 (Protein Science : A Publication of the Protein Society, 2025).
# Like-named read-outs stand apart in the source and are kept apart here.
# System: PABPC1 PABC
# Format: binding, human
# Conditions: DMS-BM library, bait PABPC1 PABC, row aa = residue at this position; for DMS-derived PSSM value (averaged), position A6 / DMS-derived PSSM value, position A6: A = wild type; for DMS-derived PSSM value, position T3: T = wild type
# [1] = prey ATXN2, TLNPNAKEFNPRSF(averaged) over the two overlapping peptides, R = wild type
# [2] = prey ATXN2, TLNPNAKEFNPRSF(averaged) over the two overlapping peptides, F = wild type
# [3] = prey ATXN2, peptide KSTLNPNAKEFNPRSF, L = wild type
# [4] = prey ATXN2, peptide KSTLNPNAKEFNPRSF, F = wild type
# [5] = prey ATXN2, peptide KSTLNPNAKEFNPRSF, S = wild type
# [6] = prey ATXN2, peptide TLNPNAKEFNPRSFSQ, N = wild type
# [7] = prey ATXN2, TLNPNAKEFNPRSF(averaged) over the two overlapping peptides
# [8] = prey ATXN2, TLNPNAKEFNPRSF(averaged) over the two overlapping peptides, N = wild type
# [9] = prey ATXN2, peptide TLNPNAKEFNPRSFSQ, L = wild type
# [10] = prey ATXN2, peptide KSTLNPNAKEFNPRSF
# [11] = prey ATXN2, peptide KSTLNPNAKEFNPRSF, N = wild type
# [12] = prey ATXN2, peptide TLNPNAKEFNPRSFSQ, S = wild type
# [13] = prey ATXN2, TLNPNAKEFNPRSF(averaged) over the two overlapping peptides, E = wild type
# [14] = prey ATXN2, peptide TLNPNAKEFNPRSFSQ
# [15] = prey ATXN2, peptide TLNPNAKEFNPRSFSQ, R = wild type
# [16] = prey ATXN2, peptide TLNPNAKEFNPRSFSQ, F = wild type
# [17] = prey ATXN2, peptide TLNPNAKEFNPRSFSQ, P = wild type
substance,measurement,setting,value
TLNPNAKEFNPRSF(averaged) R12P (TLNPNAKEFNPPSF),"DMS-derived PSSM value (averaged), position R12",[1],0.006659
TLNPNAKEFNPRSF(averaged) F14W (TLNPNAKEFNPRSW),"DMS-derived PSSM value (averaged), position F14",[2],0.01444
KSTLNPNAKEFNPRSF L4P (KSTPNPNAKEFNPRSF),"DMS-derived PSSM value, position L4",[3],0
KSTLNPNAKEFNPRSF K9T (KSTLNPNATEFNPRSF),"DMS-derived PSSM value, position K9","prey ATXN2, peptide KSTLNPNAKEFNPRSF, K = wild type",0.02286
KSTLNPNAKEFNPRSF F11N (KSTLNPNAKENNPRSF),"DMS-derived PSSM value, position F11",[4],0.09626
KSTLNPNAKEFNPRSF S2L (KLTLNPNAKEFNPRSF),"DMS-derived PSSM value, position S2",[5],0.006151
KSTLNPNAKEFNPRSF S2G (KGTLNPNAKEFNPRSF),"DMS-derived PSSM value, position S2",[5],0.02803
TLNPNAKEFNPRSFSQ N5M (TLNPMAKEFNPRSFSQ),"DMS-derived PSSM value, position N5",[6],0.7094
TLNPNAKEFNPRSFSQ N5E (TLNPEAKEFNPRSFSQ),"DMS-derived PSSM value, position N5",[6],3.906e-5
TLNPNAKEFNPRSF(averaged) A6L (TLNPNLKEFNPRSF),"DMS-derived PSSM value (averaged), position A6",[7],0
TLNPNAKEFNPRSFSQ N10L (TLNPNAKEFLPRSFSQ),"DMS-derived PSSM value, position N10",[6],0.1974
TLNPNAKEFNPRSF(averaged) S13Y (TLNPNAKEFNPRYF),"DMS-derived PSSM value (averaged), position S13","prey ATXN2, TLNPNAKEFNPRSF(averaged) over the two overlapping peptides, S = wild type",0.0362
TLNPNAKEFNPRSF(averaged) R12Q (TLNPNAKEFNPQSF),"DMS-derived PSSM value (averaged), position R12",[1],0.05602
TLNPNAKEFNPRSF(averaged) N5S (TLNPSAKEFNPRSF),"DMS-derived PSSM value (averaged), position N5",[8],0.02321
KSTLNPNAKEFNPRSF R14G (KSTLNPNAKEFNPGSF),"DMS-derived PSSM value, position R14","prey ATXN2, peptide KSTLNPNAKEFNPRSF, R = wild type",0.105
TLNPNAKEFNPRSF(averaged) A6Y (TLNPNYKEFNPRSF),"DMS-derived PSSM value (averaged), position A6",[7],0
TLNPNAKEFNPRSF(averaged) F9G (TLNPNAKEGNPRSF),"DMS-derived PSSM value (averaged), position F9",[2],0
TLNPNAKEFNPRSFSQ L2T (TTNPNAKEFNPRSFSQ),"DMS-derived PSSM value, position L2",[9],0
KSTLNPNAKEFNPRSF T3Y (KSYLNPNAKEFNPRSF),"DMS-derived PSSM value, position T3",[10],0.005309
TLNPNAKEFNPRSF(averaged) P4N (TLNNNAKEFNPRSF),"DMS-derived PSSM value (averaged), position P4","prey ATXN2, TLNPNAKEFNPRSF(averaged) over the two overlapping peptides, P = wild type",0.0005247
KSTLNPNAKEFNPRSF N5E (KSTLEPNAKEFNPRSF),"DMS-derived PSSM value, position N5",[11],0
TLNPNAKEFNPRSF(averaged) R12K (TLNPNAKEFNPKSF),"DMS-derived PSSM value (averaged), position R12",[1],0.01002
KSTLNPNAKEFNPRSF T3G (KSGLNPNAKEFNPRSF),"DMS-derived PSSM value, position T3",[10],0.0785
KSTLNPNAKEFNPRSF F11A (KSTLNPNAKEANPRSF),"DMS-derived PSSM value, position F11",[4],0
TLNPNAKEFNPRSF(averaged) N3G (TLGPNAKEFNPRSF),"DMS-derived PSSM value (averaged), position N3",[8],0
TLNPNAKEFNPRSFSQ S13H (TLNPNAKEFNPRHFSQ),"DMS-derived PSSM value, position S13",[12],0.01388
TLNPNAKEFNPRSF(averaged) E8P (TLNPNAKPFNPRSF),"DMS-derived PSSM value (averaged), position E8",[13],0.1423
KSTLNPNAKEFNPRSF S15F (KSTLNPNAKEFNPRFF),"DMS-derived PSSM value, position S15",[5],0.0234
KSTLNPNAKEFNPRSF L4E (KSTENPNAKEFNPRSF),"DMS-derived PSSM value, position L4",[3],0
KSTLNPNAKEFNPRSF F11K (KSTLNPNAKEKNPRSF),"DMS-derived PSSM value, position F11",[4],0.006092
KSTLNPNAKEFNPRSF L4R (KSTRNPNAKEFNPRSF),"DMS-derived PSSM value, position L4",[3],0
KSTLNPNAKEFNPRSF N12I (KSTLNPNAKEFIPRSF),"DMS-derived PSSM value, position N12",[11],0.02863
TLNPNAKEFNPRSFSQ S15F (TLNPNAKEFNPRSFFQ),"DMS-derived PSSM value, position S15",[12],0.01014
TLNPNAKEFNPRSFSQ N5G (TLNPGAKEFNPRSFSQ),"DMS-derived PSSM value, position N5",[6],0.01384
KSTLNPNAKEFNPRSF T3M (KSMLNPNAKEFNPRSF),"DMS-derived PSSM value, position T3",[10],0.08084
TLNPNAKEFNPRSFSQ A6D (TLNPNDKEFNPRSFSQ),"DMS-derived PSSM value, position A6",[14],0
KSTLNPNAKEFNPRSF F16G (KSTLNPNAKEFNPRSG),"DMS-derived PSSM value, position F16",[4],0
TLNPNAKEFNPRSF(averaged) A6F (TLNPNFKEFNPRSF),"DMS-derived PSSM value (averaged), position A6",[7],0
TLNPNAKEFNPRSFSQ N5K (TLNPKAKEFNPRSFSQ),"DMS-derived PSSM value, position N5",[6],0.01257
TLNPNAKEFNPRSFSQ E8T (TLNPNAKTFNPRSFSQ),"DMS-derived PSSM value, position E8","prey ATXN2, peptide TLNPNAKEFNPRSFSQ, E = wild type",0.09413
TLNPNAKEFNPRSFSQ R12V (TLNPNAKEFNPVSFSQ),"DMS-derived PSSM value, position R12",[15],0.1384
KSTLNPNAKEFNPRSF S15I (KSTLNPNAKEFNPRIF),"DMS-derived PSSM value, position S15",[5],0.03802
KSTLNPNAKEFNPRSF F11G (KSTLNPNAKEGNPRSF),"DMS-derived PSSM value, position F11",[4],0
KSTLNPNAKEFNPRSF S2I (KITLNPNAKEFNPRSF),"DMS-derived PSSM value, position S2",[5],0.01393
KSTLNPNAKEFNPRSF P6M (KSTLNMNAKEFNPRSF),"DMS-derived PSSM value, position P6","prey ATXN2, peptide KSTLNPNAKEFNPRSF, P = wild type",0
TLNPNAKEFNPRSFSQ F9T (TLNPNAKETNPRSFSQ),"DMS-derived PSSM value, position F9",[16],0.05894
TLNPNAKEFNPRSFSQ N10D (TLNPNAKEFDPRSFSQ),"DMS-derived PSSM value, position N10",[6],0.08868
KSTLNPNAKEFNPRSF F11Q (KSTLNPNAKEQNPRSF),"DMS-derived PSSM value, position F11",[4],0
KSTLNPNAKEFNPRSF S15T (KSTLNPNAKEFNPRTF),"DMS-derived PSSM value, position S15",[5],0.007163
TLNPNAKEFNPRSFSQ P4H (TLNHNAKEFNPRSFSQ),"DMS-derived PSSM value, position P4",[17],0.0297
TLNPNAKEFNPRSFSQ L2Q (TQNPNAKEFNPRSFSQ),"DMS-derived PSSM value, position L2",[9],0
KSTLNPNAKEFNPRSF F11D (KSTLNPNAKEDNPRSF),"DMS-derived PSSM value, position F11",[4],0
TLNPNAKEFNPRSF(averaged) K7T (TLNPNATEFNPRSF),"DMS-derived PSSM value (averaged), position K7","prey ATXN2, TLNPNAKEFNPRSF(averaged) over the two overlapping peptides, K = wild type",0.01485
KSTLNPNAKEFNPRSF S15L (KSTLNPNAKEFNPRLF),"DMS-derived PSSM value, position S15",[5],0.4164
TLNPNAKEFNPRSFSQ R12P (TLNPNAKEFNPPSFSQ),"DMS-derived PSSM value, position R12",[15],0.005288
TLNPNAKEFNPRSF(averaged) F9N (TLNPNAKENNPRSF),"DMS-derived PSSM value (averaged), position F9",[2],0.04813
KSTLNPNAKEFNPRSF F16V (KSTLNPNAKEFNPRSV),"DMS-derived PSSM value, position F16",[4],0.175
TLNPNAKEFNPRSF(averaged) F9W (TLNPNAKEWNPRSF),"DMS-derived PSSM value (averaged), position F9",[2],0.4279
TLNPNAKEFNPRSFSQ S15Q (TLNPNAKEFNPRSFQQ),"DMS-derived PSSM value, position S15",[12],0.01622
TLNPNAKEFNPRSFSQ S15W (TLNPNAKEFNPRSFWQ),"DMS-derived PSSM value, position S15",[12],0.05986
TLNPNAKEFNPRSF(averaged) L2M (TMNPNAKEFNPRSF),"DMS-derived PSSM value (averaged), position L2","prey ATXN2, TLNPNAKEFNPRSF(averaged) over the two overlapping peptides, L = wild type",0.2157
KSTLNPNAKEFNPRSF N7H (KSTLNPHAKEFNPRSF),"DMS-derived PSSM value, position N7",[11],0.03167
TLNPNAKEFNPRSFSQ F14E (TLNPNAKEFNPRSESQ),"DMS-derived PSSM value, position F14",[16],0.02018
TLNPNAKEFNPRSFSQ P4S (TLNSNAKEFNPRSFSQ),"DMS-derived PSSM value, position P4",[17],0.01574
TLNPNAKEFNPRSFSQ A6M (TLNPNMKEFNPRSFSQ),"DMS-derived PSSM value, position A6",[14],0
TLNPNAKEFNPRSFSQ R12S (TLNPNAKEFNPSSFSQ),"DMS-derived PSSM value, position R12",[15],0.1947
KSTLNPNAKEFNPRSF F11H (KSTLNPNAKEHNPRSF),"DMS-derived PSSM value, position F11",[4],0
KSTLNPNAKEFNPRSF T3A (KSALNPNAKEFNPRSF),"DMS-derived PSSM value, position T3",[10],0.04081
TLNPNAKEFNPRSFSQ R12M (TLNPNAKEFNPMSFSQ),"DMS-derived PSSM value, position R12",[15],0.04074
TLNPNAKEFNPRSF(averaged) E8M (TLNPNAKMFNPRSF),"DMS-derived PSSM value (averaged), position E8",[13],0.02105
